{"source": "patent US20040180879A1", "about": "“Novel method of treating vasomotor symptoms” (priority 2002, published 2004)", "key": {"[1]": {"system": "morphine-dependent rat model (MD model) of hot flush", "assay": "morphine-dependent naloxone-induced flush (MD model) of hot flush, tail skin temperature", "assay_type": "in vivo", "conditions": "for effect of the combination with 5-HT2a receptor antagonist on abating naloxone-induced flush: MDL-100907 0.01 mg/kg sc + desipramine 1 mg/kg or venlafaxine 10 mg/kg sc; for effect on MDL-100907-induced pre-naloxone flush (words): given sc 40 min prior to naloxone, after MDL-100907 0.01 mg/kg (55 min prior), desipramine 1 mg/kg; for effect on MDL-100907-induced pre-naloxone flush (words) / abatement of 5-HT2a receptor antagonist-induced pre-naloxone flush: venlafaxine 10 mg/kg, 15 min pre-naloxone; for abatement of 5-HT2a receptor antagonist-induced pre-naloxone flush: given sc after MDL-100907 (0.01 mg/kg), desipramine 1.0 mg/kg, compared to MDL treated animals"}, "[2]": {"conditions": "desipramine 300-500 mg/day; fluoxetine 20 mg/day; cited from earlier work"}}, "note": "Entries after “also recorded” stand apart in the source; their conditions may differ.", "data": [{"smiles": "COc1cc(CC(C)N)c(OC)cc1I", "note": "(centres unmarked) [DOI]", "values": [{"measurement": "effect of 5-HT2a receptor agonist on MDL-100907-induced flush", "setting": "[1]; DOI 0.3 mg/kg sc, 15 min prior to MDL-100907 (0.01 and 0.1 mg/kg)", "value": "block; also recorded: abated; also recorded: abatement"}]}, {"smiles": "CNCCC(Oc1ccc(C(F)(F)F)cc1)c1ccccc1", "note": "(centres unmarked) [fluoxetine]", "values": [{"measurement": "side effects of high doses alone", "setting": "[2]", "value": "can induce vomiting, nausea, sweating and flushes"}]}, {"smiles": "CNCCCN1c2ccccc2CCc2ccccc21", "note": "[desipramine]", "values": [{"measurement": "side effects of high doses alone", "setting": "[2]", "value": "can induce vomiting, nausea, sweating and flushes"}, {"measurement": "effect of the combination with 5-HT2a receptor antagonist on abating naloxone-induced flush", "setting": "[1]; 15 min post-naloxone", "value": "efficacy can be enhanced"}, {"measurement": "abatement of naloxone-induced flush on co-administration with 5-HT2a receptor antagonist", "setting": "[1]; desipramine 1.0 mg/kg sc + MDL-100907 0.01 mg/kg sc, 15 min post-naloxone", "value": 80, "unit": "%"}, {"measurement": "abatement of naloxone-induced hot flush", "setting": "[1]; desipramine alone, approximate ED50 (1.0 mg/kg sc), ovariectomized morphine-dependent rats", "value": 50, "unit": "%"}, {"measurement": "effect on MDL-100907-induced pre-naloxone flush (words)", "setting": "[1]", "value": "abates an MDL-100907-induced flush"}, {"measurement": "effect on MDL-100907-induced pre-naloxone flush (words)", "setting": "[1]; listed as Desipramine", "value": "reversed"}, {"measurement": "abatement of 5-HT2a receptor antagonist-induced pre-naloxone flush", "setting": "[1]", "value": 75, "unit": "%"}]}, {"smiles": "COc1ccc(C(CN(C)C)C2(O)CCCCC2)cc1", "note": "(centres unmarked) [venlafaxine]", "values": [{"measurement": "effect of the combination with 5-HT2a receptor antagonist on abating naloxone-induced flush", "setting": "[1]; 15 min post-naloxone", "value": "enhanced abatement of a naloxone-induced flush; also recorded: can enhance this effect"}, {"measurement": "effect on MDL-100907-induced pre-naloxone flush (words)", "setting": "[1]", "value": "abates an MDL-100907-induced flush"}, {"measurement": "effect on MDL-100907-induced pre-naloxone flush (words)", "setting": "[1]; listed as Venlafaxine", "value": "reversed"}, {"measurement": "abatement of 5-HT2a receptor antagonist-induced pre-naloxone flush", "setting": "[1]", "value": 60, "unit": "%"}]}, {"smiles": "COc1cccc(C(O)C2CCN(CCc3ccc(F)cc3)CC2)c1OC", "note": "(stereo not drawn) [MDL-100907, (+)-α-(2,3-dimethoxyphenyl)-1-[2-(4-fluorophenyl)ethyl]-4-piperidinemethanol]", "values": [{"measurement": "effect of the combination with 5-HT2a receptor antagonist on abating naloxone-induced flush", "setting": "[1]; 15 min post-naloxone, listed as MDL-100902", "value": "enhances desipramine's effect on abating naloxone-induced flush; also recorded: enhances venlafaxine's effect on a naloxone-induced flush"}, {"measurement": "effect of 5-HT2a receptor antagonist on DOI alleviation of naloxone-induced flush", "setting": "[1]; MDL-100907 (0.01 and 0.1 mg/kg sc) after DOI 0.3 mg/kg sc, maximal flush, 15 min post-naloxone", "value": "reverse the efficacy of the 5-HT2a agonist in abating the naloxone-induced flush; also recorded: reversed the DOI alleviation of the naloxone-induced flush"}, {"measurement": "effect on tail skin temperature (TST) prior to naloxone (5-HT2a antagonist-induced flush)", "setting": "[1]; MDL-100907 alone, 0.01 mg/kg sc, 55 min prior to naloxone, 0.01 mg/kg", "value": "induced hot flush; also recorded: induced a significant increase in TST"}, {"measurement": "effect on naloxone-induced hot flush", "setting": "[1]; MDL-100907 alone, 0.01 mg/kg sc, post-naloxone", "value": "enhanced the naloxone-induced hot flush"}]}]}
